In US8399520B2, “Selective estrogen receptor modulator” (Eisai R&D Management Co., Ltd., priority 2002, dated 2013):

What was measured:
[1] = biological target: T1, estrogen receptor derived from bovine uterus (Bos taurus, UniProt P49884); experiment: In vitro estrogen receptor binding assay; conditions: read-out: Estrogen receptor binding affinity: Ki
T1 construct: estrogen receptor derived from bovine uterus was diluted with the assay buffer solution so that 10 to 20 μg total protein was present; from tissue; host or cells: bovine uterus
T1 sequence (P49884 1-596): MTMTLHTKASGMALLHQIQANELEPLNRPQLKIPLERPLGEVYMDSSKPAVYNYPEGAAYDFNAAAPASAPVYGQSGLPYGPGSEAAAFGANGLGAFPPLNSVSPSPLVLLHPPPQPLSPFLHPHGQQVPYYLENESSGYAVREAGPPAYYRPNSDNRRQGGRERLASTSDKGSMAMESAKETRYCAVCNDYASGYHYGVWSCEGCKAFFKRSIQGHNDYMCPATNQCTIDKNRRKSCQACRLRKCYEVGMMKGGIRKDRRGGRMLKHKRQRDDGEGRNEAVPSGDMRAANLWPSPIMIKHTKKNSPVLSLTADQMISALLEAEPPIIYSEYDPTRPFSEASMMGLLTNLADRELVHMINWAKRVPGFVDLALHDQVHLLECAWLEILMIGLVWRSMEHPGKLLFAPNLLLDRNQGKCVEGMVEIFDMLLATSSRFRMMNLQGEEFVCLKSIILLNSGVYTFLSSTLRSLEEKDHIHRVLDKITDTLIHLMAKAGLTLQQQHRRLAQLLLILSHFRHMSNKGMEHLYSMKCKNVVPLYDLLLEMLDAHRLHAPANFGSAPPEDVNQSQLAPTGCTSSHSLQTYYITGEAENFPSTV
Description: The binding affinity of the compound according to the present invention to estrogen receptor was measured using an in vitro estrogen receptor binding assay. The binding affinity measures the ability of the compound according to the present invention to remove [^3H]-estradiol from estrogen receptor derived from bovine uterus. The following materials were used in this assay: (1) the assay buffer solution was 20 mM Tris/HCl (pH 7.5) containing 1 mM dithiothreitol (DTT), 1 mM EDTA and 10% glycerol; (2) radioactive ligand was [^3H]-estradiol purchased from Amersham Life Science; (3) the cold ligand was diethylstilbestrol purchased from sigma (Sigma); and (4) the estrogen receptor was derived from bovine uterus. The compound to be tested was prepared as a 10% DMSO solution. [^3H]-estradiol was dissolved in the assay buffer solution so as to obtain a final concentration of 1 nM. […] Each plate contains total binding, non-specific binding and the binding which were not inhibited by various concentrations of the compound. The plate was incubated for 1 hour at room temperature. […] These mixtures were centrifuged, and the supernatant thereof was evaluated for its radioactivity using a liquid scintillation counter. Specific binding was calculated by subtracting non-specific binding dpm (counts remaining in the supernatant obtained by centrifugal separation of a reaction mixture containing estrogen receptor derived from bovine uterus, radioactive ligand and excess cold ligand) from the total binding dpm (counts remaining in the supernatant obtained by centrifugal separation of a reaction mixture containing estrogen receptor derived from bovine uterus and radioactive ligand only). The effectiveness of the compound was evaluated by Ki. […] C is the concentration of [^3H]-estradiol in the reaction mixture, and Kd is the [^3H]-estradiol dissociation constant. The Kd was determined by Scatchard analysis. That is to say, various concentrations of [^3H]-estradiol were used to measure the concentration of specifically bound [^3H]-estradiol, which served as the horizontal axis, the value which was obtained by dividing the concentration of specifically bound [^3H]-estradiol by the concentration [^3H]-estradiol not bound to the receptor served as the vertical axis to produce a plot, and the negative value of the inverse of the slope of the resulting straight line was used as Kd.

ovariectomized rats [2] = experiment: Ovariectomized rats: bone density of femur and fifth lumbar vertebrae; type: in vivo, rat; conditions: for Bone Mineral Density, Distal femur / Bone Mineral Density, Lumber 5 / Bone Mineral Density, Whole femur: OVX rats, 10 mg/kg orally, 8 weeks; for Effect on bone mineral density of femur and fifth lumbar vertebrae (in words): ovariectomized rats, eight weeks after ovariectomy, compared with sham-operated rats
Excerpt: (§1) Ten weeks old Female Fischer rats (F344/N, Japan SLC, Shizuoka, Japan) were used. Rats were grouped to eliminate the effect of body weight between each group and housed with free access to food and water. Animals were anesthetized with Nembutal (Abbott Laboratories, Chicago, Ill.) and the ovaries were removed. In sham-operated group, ovaries were only touched with tweezers. Administration of compounds was started one day after the operation.
(§2) Estradiol (Sigma-Aldrich, St. Louis, Mo.) was dissolved in DMSO to 150 mg/mL then diluted with sesame oil to 0.15 mg/mL. The compounds in Examples 736 and 814, and Raloxifene were suspended in sesame oil to 5, 5 and 1.5 mg/mL, respectively. Samples were divided into aliquots for daily administration and preserved at −18° C. until use.
(§3) The samples were orally administered at 2 mL/kg. Administration was carried out once a day from Monday to Friday for 8 weeks.
After animals were sacrificed by decapitation, left femur and the fifth lumbar vertebrae were removed. The bone density was measured by using QDR-1000/W (Ho logic Inc., Bedford, Mass.).

[3] = system: MCF-7 breast cancer cells; experiment: MCF-7 growth analysis (estrogen agonist and antagonist activity, MTT assay); type: cell-based; conditions: Homo sapiens; for activity at 0.1 µM: MCF7, MCF-7, 72 hours, growth rate of diluent control = 100, of 17β-estradiol (1 nM) = 200, read-out: Agonist activity: growth rate (100 nM test compound); for IC50: MCF7, MCF-7 growth with 17β-estradiol (10 pM) present simultaneously, 72 hours
Description: Test Example 2 determines the estrogen agonist and antagonist activities of the compound according to the present invention in reproduction system cells. […] The present test was carried out according to the following procedures. MCF-7 breast cancer cells were cultured in the preservation medium until the compound evaluation. The preservation medium is the MEM (minimum essential medium, phenol red-free, Gibco, ##51200-038) supplemented with 10% (volume/volume) fetal bovine serum (FBS), 2 mM L-glutamine, 1 mM sodium pyruvate, non-essential amino acids (0.1 mM, Gibco, #15240-062), and antibiotic-antimycotic solution ( 1/50 of culture medium volume, Gibco). Five days prior to analysis, the preservation medium was exchanged with analytical medium to which 10% charcoal-stripped fetal bovine serum (charcoal-FBS) was added instead of 10% FBS, so as to deprive the MCF-7 cells of endogenous steroids. Twenty-four hours after exchange to the analytical medium, the MCF-7 cells were removed from the preservation flask using cell isolation medium (trypsin-EDTA solution, Gibco). The cells were washed with analytical medium once, and cell suspension at 50,000 cell/ml was prepared using the analytical medium. The prepared cell suspension was added to a 96 well flat-bottomed microculture at […] (5,000 cells) per well, the cells were cultured in a 5% CO2 incubator for 24 hours at 37° C., to equilibrate the cells after cell transfer. […] The cells were further cultured in the 5% CO2 incubator for 72 hours at 37° C. After culturing, the cell growth was examined by the MTT assay. MTT assay was carried out as the following protocols. MTT solution at 8 mg/ml (MTT dissolved in phosphate saline water buffer) was added to the microculture at 10 μl/well, and the cells were cultured in the 5% CO2 incubator for 30 minutes at 37° C. Thereafter, resulting from the reduction of MTT by the cells, formazan crystals were dissolved by adding a dissolution buffer (400 g/l of an aqueous solution of SDS (50%) and dimethylformamide (50%)) to the microculture at 100 μl/well, and incubated the microculture for more than 4 hours in the dark. For each well of the microculture, the optical density at 590 nm due to the dissolved formazan crystals was measured.

ovariectomized rats [4] = experiment: Ovariectomized rats: uterus wet weight; type: in vivo, rat; conditions: rat, in vivo
Excerpt: as §1, §2, §3
After animals were sacrificed by decapitation, uterus was removed and adipose tissue and vagina was separated from uterus prior to uterus weight measurement.

ovariectomized rats [5] = experiment: Bone resorption in ovariectomized rats: deoxypyridinoline in urine; type: in vivo, rat; conditions: for Deoxypyridinoline, 5 weeks / Deoxypyridinoline, 8 weeks: OVX rats, 10 mg/kg orally once a day Monday to Friday, urine; for Effect on excretion of deoxypyridinoline in urine (in words): ovariectomized rats, after 5 and 8 weeks administrations
Excerpt: as §1, §2, §3
Urine was gathered overnight (17 hours) using the metabolic cage under fasting. The amount of urinary deoxypyridinoline was measured with ELISA kit, Osteorincs-DPD (Sumitomo Seiyaku Biomedical Co., Ltd., Osaka, Japan) and evaluated as total amount produced in 17 hours or as the amount per 1 mg of creatinine.

CCNCCc1ccc(CN(CC)c2cc(OC)ccc2[C@@H]2CCc3cc(O)ccc3C2)cc1 [Example 736, (R)-6-{2-{Ethyl[4-(2-ethylaminoethyl)benzyl]amino}-4-methoxyphenyl}-5,6,7,8-tetrahydronaphthalen-2-ol]
Ki [1]: 6 nM
Bone Mineral Density, Distal femur (ovariectomized rats [2]): 0.256 ± 0.002 g/cm^2
Bone Mineral Density, Lumber 5 (ovariectomized rats [2]): 0.156 ± 0.003 g/cm^2
Bone Mineral Density, Whole femur (ovariectomized rats [2]): 0.241 ± 0.002 g/cm^2
Effect on bone mineral density of femur and fifth lumbar vertebrae (in words) (ovariectomized rats [2]): preserved bone mineral density at the level in sham-operated rats
activity at 0.1 µM [3]: 73%
IC50 [3]: 0.74 nM
Effect on uterus wet weight (in words) (ovariectomized rats [4]): did not influence the wet weight of the uterus at all
Deoxypyridinoline, 5 weeks (ovariectomized rats [5]): 10.48 ± 0.52 nM/mg/dl
Deoxypyridinoline, 8 weeks (ovariectomized rats [5]): 15.33 ± 0.78 nM/mg/dl
Effect on excretion of deoxypyridinoline in urine (in words) (ovariectomized rats [5]): significantly attenuated the excretion of deoxypyridinoline

COc1ccc([C@@H]2CCc3cc(O)ccc3C2)c(N(CCO)Cc2ccc(OCC(C)(C)N(C)C)cc2)c1 [Example 814, (R)-6-{2-[[4-(2-Dimethylamino-2-methylpropoxy)benzyl](2-hydroxyethyl)amino]-4-methoxyphenyl}-5,6,7,8-tetrahydronaphthalen-2-ol]
Ki [1]: 8.4 nM
Bone Mineral Density, Distal femur (ovariectomized rats [2]): 0.248 ± 0.002 g/cm^2
Bone Mineral Density, Lumber 5 (ovariectomized rats [2]): 0.159 ± 0.001 g/cm^2
Bone Mineral Density, Whole femur (ovariectomized rats [2]): 0.237 ± 0.002 g/cm^2
Effect on bone mineral density of femur and fifth lumbar vertebrae (in words) (ovariectomized rats [2]): preserved bone mineral density at the level in sham-operated rats
activity at 0.1 µM [3]: 95%
IC50 [3]: 3.23 nM
Effect on uterus wet weight (in words) (ovariectomized rats [4]): slightly increased uterus wet weight to the same level
Deoxypyridinoline, 5 weeks (ovariectomized rats [5]): 11.22 ± 1.12 nM/mg/dl
Deoxypyridinoline, 8 weeks (ovariectomized rats [5]): 15.48 ± 0.98 nM/mg/dl
Effect on excretion of deoxypyridinoline in urine (in words) (ovariectomized rats [5]): significantly attenuated the excretion of deoxypyridinoline
